From PMC6851183, “Computational design and characterization of nanobody-derived peptides that stabilize the active conformation of the β2-adrenergic receptor (β2-AR)” (Scientific Reports, 2019) come the findings set out here.

pEC50: −log10 of the molar value. Ends that are not written are not given here.

This assay addresses T1, β2-AR/RLuc8 with GFP^2/β-arr2 Arg393Glu, Arg395Glu (Homo sapiens, UniProt P07550).
T1 construct: expressed in transfected cells; host or cells: HEK-293
Nature of the assay: BRET^2-based β-arrestin 2 recruitment assay. It counts as cell-based. Background: BRET reads energy transfer from a luciferase to a nearby fluorophore.

T1 sequence (P07550 whole entry, change not shown): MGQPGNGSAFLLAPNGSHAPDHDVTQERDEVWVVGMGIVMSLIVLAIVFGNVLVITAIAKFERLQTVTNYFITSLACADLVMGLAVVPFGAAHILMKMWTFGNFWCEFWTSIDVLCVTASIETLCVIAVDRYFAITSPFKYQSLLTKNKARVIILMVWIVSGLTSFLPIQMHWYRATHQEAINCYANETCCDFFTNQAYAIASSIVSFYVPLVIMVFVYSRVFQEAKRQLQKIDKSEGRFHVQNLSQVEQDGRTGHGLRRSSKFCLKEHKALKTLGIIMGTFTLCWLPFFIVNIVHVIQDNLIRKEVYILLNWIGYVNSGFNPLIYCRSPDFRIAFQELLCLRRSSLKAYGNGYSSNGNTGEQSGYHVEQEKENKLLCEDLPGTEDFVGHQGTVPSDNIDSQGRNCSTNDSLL

Turning to EDTAVYYCNANWDLLSD [P3], the pEC50 (as a rule, the EC50 on a negative log10 scale, so that one unit is a factor of ten) is approximately 9.00. Besides, where the note is “homogenized or permeabilized cells, 10 µM isoproterenol, P3 10^−12 to 10^−5 M, dose-dependent, maximum”, the “reduction in isoproterenol-induced BRET^2 signal” value was “up to 10%”.
